According to patent US8362038B2, “1-isopropyl-2-oxo-1,2-dihydropyridine-3-carboxamide derivatives having 5-HT4 receptor agonistic activity” (Pfizer Inc., priority 2004, dated 2013):
Counter-ions that a name gives are not always drawn.

Experiments:
Human 5-HT4(d) = target: T1, Human 5-HT4(d) (Homo sapiens, UniProt Q13639); experiment: Human 5-HT4 binding ([3H]-GR113808 displacement, SPA); conditions: for Ki: membranes of human 5-HT4(d) transfected HEK293 cells, [3H]-GR113808 0.2 nM
T1 construct: expressed in transfected cells; host or cells: HEK293
Experimental: The 5-HT4 receptor binding affinities of the compounds of this invention are determined by the following procedures.
Human 5-HT4(d) transfected HEK293 cells were prepared and grown in-house. The collected cells were suspended in 50 mM HEPES (pH 7.4 at 4° C.) supplemented with protease inhibitor cocktail (Boehringer, 1:1000 dilution) and homogenized using a hand held Polytron PT 1200 disruptor set at full power for 30 sec on ice. The homogenates were centrifuged at 40,000×g at 4° C. for 30 min. The pellets were then resuspended in 50 mM HEPES (pH 7.4 at 4° C.) and centrifuged once more in the same manner. The final pellets were resuspended in an appropriate volume of 50 mM HEPES (pH 7.4 at 25° C.), homogenized, aliquoted and stored at −80° C. until use. An aliquot of membrane fractions was used for protein concentration determination using BCA protein assay kit (PIERCE) and ARVOsx plate reader (Wallac).
For the binding experiments, 25 μl of test compounds were incubated with 25 μl of [^3H]-GR113808 (Amersham, final 0.2 nM) and 150 μl of membrane homogenate and WGA-SPA beads (Amersham) suspension solutions (10 μg protein and 1 mg SPA beads/well) for 60 minutes at room temperature. Nonspecific binding was determined by 1 μM GR113808 (Tocris) at the final concentration. Incubation was terminated by centrifugation at 1000 rpm. Receptor-bound radioactivity was quantified by counting with MicroBeta plate counter (Wallac).

Caco-2 permeability = format: in vitro ADME; conditions: human, Caco-2; apical pH 6.5 to basolateral pH 7.4, 10 μM, mean of 2 inserts; read-out: Caco2 Permeability [Papp]
Experimental: (§1) Caco-2 permeability was measured according to the method described in Shiyin Yee, Pharmaceutical Research, 763 (1997).
(§2) Caco-2 cells were grown on filter supports (Falcon HTS multiwell insert system) for 14 days. Culture medium was removed from both the apical and basolateral compartments and the monolayers were preincubated with pre-warmed 0.3 ml apical buffer and 1.0 ml basolateral buffer for 0.5 hour at 37° C. in a shaker water bath at 50 cycles/min. The apical buffer consisted of Hanks Balanced Salt Solution, 25 mM D-glucose monohydrate, 20 mM MES Biological Buffer, 1.25 mM CaCl2 and 0.5 mM MgCl2 (pH 6.5). The basolateral buffer consisted of Hanks Balanced Salt Solution, 25 mM D-glucose monohydrate, 20 mM HEPES Biological Buffer, 1.25 mM CaCl2 and 0.5 mM MgCl2 (pH 7.4). At the end of the preincubation, the media was removed and test compound solution (10 μM) in buffer was added to the apical compartment. The inserts were moved to wells containing fresh basolateral buffer at 1 hr. Drug concentration in the buffer was measured by LC/MS analysis.
(§3) Flux rate (F, mass/time) was calculated from the slope of cumulative appearance of substrate on the receiver side and apparent permeability coefficient (Papp) was calculated from the following equation. Papp(cm/sec)=(F*VD)/(SA*MD)
(§4) where SA is surface area for transport (0.3 cm^2), VD is the donor volume (0.3 ml), MD is the total amount of drug on the donor side at t=0. All data represent the mean of 2 inserts. Monolayer integrity was determined by Lucifer Yellow transport.

Caco-2 cells = experiment: Caco-2 permeability; format: in vitro ADME
Experimental: as §1, §2, §3, §4

T1 sequence (Q13639 1-360 isoform Q13639-3): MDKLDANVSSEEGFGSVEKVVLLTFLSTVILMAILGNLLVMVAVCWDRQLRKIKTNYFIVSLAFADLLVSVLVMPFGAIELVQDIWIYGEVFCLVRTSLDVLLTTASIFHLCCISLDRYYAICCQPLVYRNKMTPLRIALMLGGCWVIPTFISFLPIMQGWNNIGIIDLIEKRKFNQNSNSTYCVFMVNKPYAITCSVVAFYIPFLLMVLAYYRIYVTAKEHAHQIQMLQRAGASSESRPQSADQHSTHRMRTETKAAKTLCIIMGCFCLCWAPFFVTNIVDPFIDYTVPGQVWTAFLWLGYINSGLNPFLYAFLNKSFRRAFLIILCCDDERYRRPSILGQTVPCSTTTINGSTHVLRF

SMILES: Cc1c(Cl)cc(C(=O)NCC2CCN(CC3(O)CCOCC3)CC2)c(=O)n1C(C)C [Example 1, 5-Chloro-N-({1-[(4-hydroxytetrahydro-2H-pyran-4-yl)methyl]piperidin-4-yl}methyl)-1-isopropyl-6-methyl-2-oxo-1,2-dihydropyridine-3-carboxamide]
- Ki (Human 5-HT4(d)): 10.9 nM
- Papp A→B at 10 μM (Caco-2 permeability): 5.3 ×10⁻⁶ cm/s

SMILES: CCc1c(Cl)cc(C(=O)NCC2CCN(CC3(O)CCOCC3)CC2)c(=O)n1C(C)C (as salt: salt) [Example 2, 5-Chloro-6-ethyl-N-({1-[(4-hydroxytetrahydro-2H-pyran-4-yl)methyl]piperidin-4-yl}methyl)-1-isopropyl-2-oxo-1,2-dihydropyridine-3-carboxamide]
- melting point: 123 °C (dec.)

SMILES: CCCCN1CCC(CNC(=O)c2cc(Cl)c(N)n(C)c2=O)CC1 [Compound A]
- affinity / binding activity to 5-HT4 receptor (in words) (Human 5-HT4(d)): weak affinity
- Ki (Human 5-HT4(d)): > 500 nM
- permeability against caco2 membrane (in words) (Caco-2 cells): low permeability
- Papp A→B at 10 μM (Caco-2 permeability): 0.2 ×10⁻⁶ cm/s

SMILES: Cc1c(Cl)cc(C(=O)NCC2CCN(CC3(O)CCOCC3)CC2)c(=O)n1C(C)C (as salt: hydrochloride) [Example 1, 5-Chloro-N-({1-[(4-hydroxytetrahydro-2H-pyran-4-yl)methyl]piperidin-4-yl}methyl)-1-isopropyl-6-methyl-2-oxo-1,2-dihydropyridine-3-carboxamide]
- melting point: 283 °C (dec.)

SMILES: Cc1c(Cl)cc(C(=O)NCC2CCN(CC3(O)CCCCC3)CC2)c(=O)n1C(C)C [Example 7, 5-Chloro-N-({1-[(1-Hydroxycyclohexyl)Methyl]Piperidin-4-Yl}Methyl)-1-Isopropyl-6-Methyl-2-Oxo-1,2-Dihydropyridine-3-Carboxamide]
- melting point: 187 °C (dec.)

SMILES: Cc1c(Cl)cc(C(=O)NCC2CCN(CC3CCCCC3)CC2)c(=O)n1C(C)C [Example 6, 5-Chloro-N-{[1-(cyclohexylmethyl)piperidin-4-yl]methyl}-1-isopropyl-6-methyl-2-oxo-1,2-dihydropyridine-3-carboxamide]
- melting point: 168 °C (dec.)

SMILES: Cc1c(Br)cc(C(=O)NCC2CCN(CC3(O)CCOCC3)CC2)c(=O)n1C(C)C (as salt: salt) [Example 4, 5-Bromo-N-({1-[(4-hydroxytetrahydro-2H-pyran-4-yl)methyl]piperidin-4-yl}methyl)-1-isopropyl-6-methyl-2-oxo-1,2-dihydropyridine-3-carboxamide]
- melting point: 205 °C (dec.)

SMILES: Cc1cc(C(=O)NCC2CCN(CC3(O)CCOCC3)CC2)c(=O)n(C(C)C)c1C (as salt: salt) [Example 3, N-({1-[(4-Hydroxytetrahydro-2H-pyran-4-yl)methyl]piperidin-4-yl}methyl)-1-isopropyl-5,6-dimethyl-2-oxo-1,2-dihydropyridine-3-carboxamide]
- melting point: 178 °C (dec.)

SMILES: Cc1c(F)cc(C(=O)NCC2CCN(CC3(O)CCOCC3)CC2)c(=O)n1C(C)C [Example 5, 5-Fluoro-N-({1-[(4-hydroxytetrahydro-2H-pyran-4-yl)methyl]piperidin-4-yl}methyl)-1-isopropyl-6-methyl-2-oxo-1,2-dihydropyridine-3-carboxamide]
- melting point: 133 °C (dec.)
